Results: patent US20110190249A1, “THERAPEUTIC METHODS AND USES OF SAPOGENINS AND THEIR DERIVATIVES” (PHYTOPHARM PLC, priority 2002, published 2011)
Marks after values point to notes of the source that are not given here.

Columns and labels:
[1] = test system: rat primary cortical neurones; assay: Prevention of glutamate-induced neurodegeneration (LDH release), pre-treatment; format: cell-based; details: 30 nM, given 24 h before glutamate; LDH 24 h after glutamate; control = 100
Method: The objective of this study was to examine the effects of sarsasapogenin, episarsasapogenin cathylate, episarsasapogenin, epismilagenin and smilagenin on the survival of rat primary cortical neurones exposed to glutamate, which is known to induce neuro degeneration.
Rat cortical neurones were cultured for 10 days; at day 10 the medium was changed to a serum-free defined medium. On day 12, 24 hours before glutamate exposure, cultures were washed and medium was replaced with fresh medium containing positive control (β-oestradiol), test compounds (sarsasapogenin, episarsasapogenin cathylate, episarsasapogenin, epismilagenin and smilagenin) or vehicle control (DMSO, 0.25%) or diosgenin as negative control.
On day 13, cultures were exposed to glutamate. After the incubation period, the cultures were washed with and placed in fresh medium, supplemented with relevant compounds or vehicle to evaluate their protective effects, 24 h after glutamate exposure.
(§1) Neuronal cell survival was evaluated by measuring lactate dehydrogenase (LDH) activity released in the media 24 h after test compound treatment or glutamate+test compound exposure, using the CytoTox 96 non-radioactive kit and quantitated by measuring wavelength absorbance at 450 nm.

aged Sprague-Dawley rats = assay: Y-maze learning and memory test in aged rats; format: in vivo, rat; details: 18 mg kg−1 day−1 oral in food, 3 months
Method: (§2) Aged Sprague-Dawley rats aged were divided into different groups, one control and groups treated for 2-3 months with either sarsasapogenin, episarsasapogenin cathylate or smilagenin (18 mg kg^−1 day^−1, n=10). A control group (n=14) of untreated young rats was also included in the study. The daily dose of drug was mixed in a minimum amount of food and was administered every morning separately to each rat.
A Y-maze apparatus was used for the learning and memory test. On the floor of each arm of the Y-maze is an array of copper rods to which electric current is applied whenever needed, with adjustable voltage. Each arm is 45 cm long and has a 15 W lamp at the end, which is turned on when needed. After 3 months drug administration, each rat was trained for 7 consecutive days, as follows. For each training session, the rat was put into one arm of the Y-maze, after two minutes rest, an electrical current was applied to the copper rods and the lamp of the clockwise arm was illuminated to indicate the non-stimulation area. If the rat went into that arm, one correct response was recorded, otherwise, one wrong response was recorded: This stimulation-response test was repeated 20 times each day, with a pause of 5 sec between each two consecutive tests. The number of correct responses following the twenty tests on the seventh day was used to express learning ability, (the higher the number the better the learning ability). The rats were then left resting for 30 days and the procedure was repeated once more. The number of correct responses of the 20 tests after the 30 day rest period was used to represent the memory ability

[2] = test system: muscarinic acetylcholine receptor; assay: Brain muscarinic acetylcholine receptor density in aged rats (dual-site competitive ligand binding); format: in vivo, rat; details: 18 mg kg−1 day−1 oral, 2-3 months
Method: as §2
Muscarinic acetylcholine receptor density in the brain was measured. Tissue was prepared as follows: brains were removed quickly after decapitation, frozen in dry ice, and transferred to a freezer. The brains were homogenised and the pellet was finally suspended in buffer.
The dual-site competitive ligand binding assay was used to measure muscarinic acetylcholine receptor density.

[3] = test system: muscarinic acetylcholine receptor; assay: Brain M receptor density (3H-QNB) in amyloid β + ibotenic acid rat model; format: in vivo; details: 18 mg/kg/day gastric tube, two months; model 713 ± 48, control 859 ± 101
Method: (§3) An in vivo model of Alzheimer's disease was used to model neurodegeneration. In this model the neurotoxic agents (amyloid β and ibotenic acid) are injected into the brain of the rat. This leads to neuronal loss, receptor loss and cognitive impairment. […] In addition the co-injection of amyloid β with a small amount of ibotenic acid into the rat hippocampus synergistically produces neuronal loss with infiltration of glial cells not only adjacent but also far from the injected site (Morimoto et al., 1998: Neuroscience, 84, 479-487).
(§4) Our studies used the method of Morimoto (Morimoto et al., 1998: Neuroscience, 84, 479-487) with some modifications (unilateral instead of bilateral injection). Three months old, Sprague Dawley rats, were randomly divided into different groups. Injection of amyloid β1-40 and ibotenic acid (both from Sigma) was accomplished by means of a stereotaxic instrument (Stoelting Co.) and the coordinates were AP=−0.5 mm […], L=−2.8 mm […], H=−7.0 mm (ventral to dura). The dose for each rat was amyloid β1-40 (4 μg) and ibotenic acid (1 μg) in 1 μl of saline. The injection was completed in 20 min, and the needle was withdrawn 10 min later. Then the skin was sutured.
(§5) The 8 groups were: • Operated control injected with normal saline (control) • Model (control injected with amyloid β+ibotenic acid) • Model+Episarsasapogenin cathylate (18 mg/kg/day)* • Model+Sarsasapogenin cathylate (18 mg/kg/day)* • Model+Episarsasapogenin ethylsuccinate (18 mg/kg/day) (comparison) • Model+Episarsasapogenin (18 mg/kg/day)* • Model+Epismilagenin (18 mg/kg/day)* • Model+Diosgenin (i.e. negative control, 18 mg/kg/day)
(§6) Episarsasapogenin cathylate, sarsasapogenin cathylate, episarsasapogenin ethylsuccinate (comparison compound), episarsasapogenin, epismilagenin and diosgenin (all at a dosage of 18 mg/kg/day) were administered to animals as stable suspensions in CMC—Na (0.5%) once daily through a gastric tube. The control and the model group were given the same volume of CMC—Na (0.5%) once daily. The drugs and vehicles were given for a period of two months, starting 20 days before operation.
Muscarinic acetylcholine receptor density was assessed. The brain samples were homogenised, centrifuged, and the pellet of centrifugation at 27000×g was re-homogenised and used for measurement. The concentration of ^3H-QNB was chosen at the saturation range. After incubation and separation, the bound portion was measured by liquid scintillation counter.

[4] = test system: Sprague Dawley rats injected with amyloid β1-40 and ibotenic acid; assay: Step-through test in amyloid β + ibotenic acid rat model; format: in vivo; details: 18 mg/kg/day gastric tube, two months; errors in 5 min; model 4.00 ± 2.40, control 0.60 ± 0.70
Method: as §3, §4, §5, §6
Step-Through Test: learning and memory. The effect of test compounds on learning and memory was assessed using the step-through test. A 60×15×15 cm box, divided into 2 equally sized rooms, one dark room with copper rod base, which was electrically charged (40 V ac) when in use, while the other was a light room but not electrically charged. Between the two rooms there is an opening (hole) for the rat to go through. The experiment is carried out for each rat on two consecutive days. The first day is for training; when the rat is adapted in the box for the first 3 min, then put in the light room, with its back toward the hole, and the copper rods of the dark room are charged for 5 min. The second day is for testing, when the number of crosses in 5 min are recorded. Improvements in memory are signalled by a reduction in the number of crosses.

[5] = test system: rat primary cortical neurones; assay: Reversal of glutamate-induced neurodegeneration (LDH), treatment after glutamate exposure; format: cell-based; details: LDH after 24 h, control = 100
Method: as §1
As above mentioned, exposure of rat primary cortical cultures to glutamate (100 μM; 10 min) caused an increase in lactate dehydrogenase (LDH) activity measured after 24 h, indicating a significant neurodegeneration.

[6] = test system: rat primary cortical neurones; assay: Neurite outgrowth in rat primary cortical neurones; format: cell-based; details: for Number of neurones displaying neurites, Mean ± s.e.m (%): control 47 ± 2; for Neurite length measured using optical micrometry, Mean ± s.e.m (%): control 100 ± 4
Description: Neurodegenerative disorders are characterised by a progressive loss of neurones and degradation of neuronal processes (neurites). Agents that induce neurite outgrowth may promote the formation of new connections between neurones and ameliorate the symptoms of neurodegenerative conditions (Katzman et al, Faseb J., 5, 278-286, 1991).

[7] = test system: rat mesencephalic dopaminergic neurones; assay: Pre-treatment of dopaminergic neurones before MPP+ exposure (neuronal survival); format: cell-based; details: pre-treatment 30 nM; MPP+ 2 μM; MPP+ alone 55 ± 3
Description: Smilagenin and sarsasapogenin prevent the neurodegeneration caused by exposure to the neurotoxin, 1-methyl-4-phenylpyridinium (MPP^+) in rat mesencephalic dopaminergic neurones; a model of Parkinson's disease in vitro.
Glial cell line-derived neurotrophic factor (GDNF) and brain-derived neurotrophic factor (BDNF), molecules that are involved in neuronal growth, were used as positive controls.

[8] = test system: rat mesencephalic dopaminergic neurones; assay: Treatment of dopaminergic neurones after MPP+ exposure (survival, neurites); format: cell-based; details: MPP+ 2 μM
Description: Smilagenin and sarsasapogenin also reverse the neurodegeneration caused by exposure to the neurotoxin 1-methyl-4-phenylpyridinium (MPP^+) in rat mesencephalic dopaminergic neurones; a model of Parkinson's disease in vitro.
Glial cell line-derived neurotrophic factor (GDNF) and brain-derived neurotrophic factor (BDNF), molecules that are involved in neuronal growth, and 17β-oestradiol were used as positive controls. Treatment with smilagenin and sarsasapogenin produced a significant increase in the neuronal survival compared to neurones exposed to MPP^+ alone (Table 8).
Exposure to MPP^+ caused not only a significant decrease in dopaminergic number but also in the percentage of neurites.

[9] = test system: rat primary spinal motor neurones; assay: Glutamate-induced neurodegeneration in spinal motor neurones (LDH); format: cell-based; details: control 100 ± 1
Method: The objective of this study was to examine the effects of sarsasapogenin and smilagenin on the survival of rat primary spinal motor neurones exposed to glutamate, which is known to induce neurodegeneration in this model of motor neurodegeneration.
Rat motor neurones were prepared according to the method described by (Martinou et al, Neuron, 8, 737-744, 1992). On day 10, medium was removed and the cultures were exposed to glutamate (4 microM) for 10 min at 37° C. in defined medium. After the glutamate exposure, cultures were washed with Dulbecco modified Eagle medium at 37° C. then placed in fresh culture medium containing test compounds. After 48 h, the extent of spinal motor neurone degeneration was determined by measuring the amount of lactate dehydrogenase (LDH) released into the culture medium as above.

dopamine (D) 1 receptor = assay: Dopamine D1 receptor density in aged rats; format: in vivo, rat; details: aged rats treated 3 months; aged untreated 129.2±36.8, young 157.5±33.2
Method: as §2
(§7) By contrast, smilagenin and sarsasapogenin treatment in aged rats for 3 months restored the D1 and D2 receptor density (smilagenin 177±10.9; 217±45.7 fmol/mg protein; sarsasapogenin 172.0±44.0; 206.4±60.5 respectively).

dopamine (D) 2 receptor = assay: Dopamine D2 receptor density in aged rats; format: in vivo, rat; details: aged rats treated 3 months; aged untreated 153.8±40.5, young 200.6±50.9
Method: as §2, §7

BDNF = BDNF levels in aged rats; format: in vivo, rat; details: aged rats treated 3 months; aged untreated 1.205±0.219, young 1.647±0.277
Method: as §2

[10] = test system: progressive motor neuropathy (pmn) mice; assay: Survival and behaviour of pmn mice (Charcot-Marie-Tooth model); format: in vivo; details: pmn mouse
Description: Amyotrophic lateral sclerosis (ALS) is a progressive fatal neurodegenerative disorder that causes motor neurone degeneration, […], paralysis and death. The cause of this disease is heterogeneous: mutations in the Cu/Zn superoxide dismutase (SOD-1) gene is responsible for some forms of human ALS. Animal models of this disease include the SOD-1 transgenic mice over-expressing SOD-1 gene and the progressive motor neuropathy (pmn, a model of Charcot-Marie-Tooth) mice.

CCOC(=O)O[C@@H]1CC[C@@]2(C)[C@H](CC[C@@H]3[C@@H]2CC[C@]2(C)[C@@H]4[C@H](C[C@@H]32)O[C@]2(CC[C@H](C)CO2)[C@H]4C)C1 [episarsasapogenin cathylate]
Prevention of glutamate-induced neurodegeneration, Mean ± s.e.m (%) [1]: 74 ± 3% | Learning and memory ability (Y-maze) (aged Sprague-Dawley rats): restored the learning and memory ability | Muscarinic acetylcholine receptor density in brain [2]: significantly restored | M receptor density [3]: 877 ± 89* fmol/mg/protein | Learning and memory Step through test Error No [4]: 1.36 ± 0.92*

C[C@H]1CC[C@@]2(OC1)O[C@H]1C[C@H]3[C@@H]4CC[C@@H]5C[C@@H](O)CC[C@]5(C)[C@H]4CC[C@]3(C)[C@H]1[C@@H]2C [sarsasapogenin]
Prevention of glutamate-induced neurodegeneration, Mean ± s.e.m (%) [1]: 79 ± 3% | Cortical neurones previously exposed to glutamate, Mean ± s.e.m (%) ([5]; 3 nM after glutamate 100 μM 10 min): 101 ± 3% | Cortical neurones previously exposed to glutamate, Mean ± s.e.m (%) ([5]; 30 nM after glutamate 100 μM 10 min): 112 ± 1% | Number of neurones displaying neurites, Mean ± s.e.m (%) ([6]; 0.3 pM): 55 ± 2% | Neurite length measured using optical micrometry, Mean ± s.e.m (%) ([6]; 0.3 pM): 177 ± 5% | Number of neurones displaying neurites, Mean ± s.e.m (%) ([6]; 3 pM): 61 ± 1% | Neurite length measured using optical micrometry, Mean ± s.e.m (%) ([6]; 3 pM): 197 ± 5% | Number of neurones displaying neurites, Mean ± s.e.m (%) ([6]; 30 pM): 62 ± 2% | Neurite length measured using optical micrometry, Mean ± s.e.m (%) ([6]; 30 pM): 211 ± 6% | Dopaminergic neurones after MPP+ exposure (survival), Mean ± s.e.m (%) [7]: 89 ± 3% | Percentage of neurites in dopaminergic neurones after MPP+ exposure, Mean ± s.e.m (%) ([8]; 0.03 nM, control 41 ± 4, MPP+ alone 27 ± 5): 43 ± 4% | Dopaminergic neurones after MPP+ exposure (survival), Mean ± s.e.m (%) ([8]; treatment 0.03 nM, MPP+ alone 76 ± 4): 112 ± 6% | Glutamate-induced neurodegeneration in spinal motor neurones, Mean ± s.e.m (%) ([9]; 0.03 nM for 48 h after glutamate 4 microM 10 min): 123 ± 2% | Glutamate-induced neurodegeneration in spinal motor neurones, Mean ± s.e.m (%) ([9]; 3 nM for 48 h after glutamate 4 microM 10 min): 137 ± 1% | Glutamate-induced neurodegeneration in spinal motor neurones, Mean ± s.e.m (%) ([9]; 300 nM for 48 h after glutamate 4 microM 10 min): 136 ± 6% | Learning and memory ability (Y-maze) (aged Sprague-Dawley rats): restored the learning and memory ability | Muscarinic acetylcholine receptor density in brain [2]: significantly restored | D1 receptor density (dopamine (D) 1 receptor): 172.0±44.0 fmol/mg protein | D2 receptor density (dopamine (D) 2 receptor): 206.4±60.5 fmol/mg protein | BDNF levels (BDNF): 1.410±0.232 ng/g tissue | Behavioural deficits ([10]; oral administration): improve the behavioural deficits | Lifespan (survival) ([10]; oral administration (FIG. 6)): increase the lifespan
